Measured values taken from patent US9523081B2, “Method for enhancing therapeutic effect of stem cells on autoimmune diseases, cardiovascular diseases, and/or hematological diseases” (GWO XI STEM CELL APPLIED TECHNOLOGY CO., LTD., priority 2014, dated 2016).

Key:
Type in all cases: cell-based
BDNF = assay: RT-PCR gene expression of BDNF in ligustilide-treated ADSCs; conditions: for BDNF expression level (Image J): ADSCs, 24 hours
Description: (§1) ADSCs were cultured in the K-SFM as prepared in Example 1 at 37° C. in 5% CO2. The ADSCs were divided into […], and each group was treated with different concentrations (0, 0.625, 1.25, 2.5, 5 and 10 μg/ml) of (Z)-ligustilide for 24 hours, respectively.
(§2) The culture medium were removed from each group of stem cells in Experiment (1), then 1 ml of TRIzol reagent (Invitrogen) was added into each well and incubated at room temperature for 5 minutes. The stem cells were scraped by using a spatula and placed into a 1.5 ml microtube. Then, the cells were lysed completely, and 0.2 ml of trichloromethane (CHCl3) was added into the microtube. The microtube was shaken up and down for 15 seconds and incubated at room temperature for 2 to 3 minutes. The mixture was centrifuged (at 12000 g for 15 minutes at 4° C.). The supernatant was transferred into another 1.5 ml microtube, and 0.5 ml of isopropanol was added therein and mixed completely. The mixture was incubated at room temperature for 10 minutes and then centrifuged (at 12000 g for 10 minutes at 4° C.). The supernatant was removed. The remained sediment was washed with 1 ml of 75% ethanol-containing DEPC water (i.e. diethylpyrocarbonate-treated H2O) and centrifuged (7500 g at 4° C. for 5 minutes) again. The supernatant was removed. The remained sediment was dried by vacuum-pumping. The dried sediment was dissolved in about 0.01 ml to 0.02 ml of DEPC water to obtain total RNA of ADSCs of experimental group and blank group, respectively. The absorbance at a wavelength of 260 nm (OD260) of the samples were determined by a spectrophotometer (DU-800, Beckman) to evaluate the concentration of RNA. Then, the RNA was stored at −80° C. and used in the following Experiment (3).
(§3) The effects of ligustilide on increasing the expression of differentiation-promoting genes (e.g., BDNF and NURR1), increasing the expression of homing-promoting genes (e.g., CXCR4 and SDF1αβ), and decreasing the expression of inflammatory genes (e.g., IL-6 and IL-8) was analyzed by reverse transcription polymerase chain reaction (RT-PCR), wherein the gene expression of glyceraldehyde 3-phosphate dehydrogenase (GAPDH) was served as a control group, and the steps were described as follows.
(§4) The total RNA provided in the above Experiment (2) was reverse transcribed into cDNA. 2.5 μl of each primer (10 pM) shown in Table 1A, 7.5 μl of ddH2O, and 12.5 μl of EconoTaq® PLUS GREEN 2X Master Mix (Lucigen, Middleton, Wis., USA) were mixed with 2.5 μl of the cDNA. The mixture was placed in a RT-PCR machine. The reaction conditions were set as follows: i) 94° C. for 30 seconds, 55° C. for 30 seconds, and […], with 30 cycles of the aforesaid steps; ii) 72° C. for 10 minutes; and iii) cooling to 4° C. to stop the reaction
(§5) The obtained RT-PCR product was analyzed by 1.5% agarose gel electrophoresis for 30 minutes (voltage: 100 volts (V)). Then, the gel was placed in and stained with ethidium bromide (EtBr) for 10 minutes, and photographed by a gel image documentation system (DOC PRINT DP-001FDC, VilberLourmat France).

NURR1 = assay: RT-PCR gene expression of NURR1 in ligustilide-treated ADSCs; conditions: for NURR1 expression level (Image J): ADSCs, 24 hours
Description: as §1, §2, §3, §4, §5

CXCR4 = assay: RT-PCR gene expression of CXCR4 in ligustilide-treated ADSCs; conditions: for CXCR4 expression level (Image J): ADSCs, 24 hours
Description: as §1, §2, §3, §4, §5

SDF1αβ = assay: RT-PCR gene expression of SDF1αβ in ligustilide-treated ADSCs; conditions: for SDF1αβ expression level (Image J): ADSCs, 24 hours
Description: as §1, §2, §3, §4, §5

IL-6 = assay: RT-PCR gene expression of IL-6 in ligustilide-treated ADSCs; conditions: for IL-6 expression level (Image J): ADSCs, 24 hours
Description: as §1, §2, §3, §4, §5

IL-8 = assay: RT-PCR gene expression of IL-8 in ligustilide-treated ADSCs; conditions: for IL-8 expression level (Image J): ADSCs, 24 hours
Description: as §1, §2, §3, §4, §5

[1] = ADSCs treated with ligustilide, compared to GAPDH control, in words

## CCC/C=C1\OC(=O)C2=C1CCC=C2 [ligustilide, (Z)-ligustilide]
BDNF; [1]
  gene expression level of BDNF: increased
BDNF; 0.625 μg/ml ligustilide
  BDNF expression level (Image J): 5411.77
BDNF; 1.25 μg/ml ligustilide
  BDNF expression level (Image J): 4915.77
BDNF; 2.5 μg/ml ligustilide
  BDNF expression level (Image J): 7069.72
BDNF; 5 μg/ml ligustilide
  BDNF expression level (Image J): 5083.65
NURR1; [1]
  gene expression level of NURR1: increased
NURR1; 0.625 μg/ml ligustilide
  NURR1 expression level (Image J): 0.00
NURR1; 1.25 μg/ml ligustilide
  NURR1 expression level (Image J): 0.00
NURR1; 2.5 μg/ml ligustilide
  NURR1 expression level (Image J): 6694.43
NURR1; 5 μg/ml ligustilide
  NURR1 expression level (Image J): 3360.55
CXCR4; [1]
  gene expression level of CXCR4: increased
CXCR4; 0.625 μg/ml ligustilide
  CXCR4 expression level (Image J): 2744.11
CXCR4; 1.25 μg/ml ligustilide
  CXCR4 expression level (Image J): 3719.23
CXCR4; 2.5 μg/ml ligustilide
  CXCR4 expression level (Image J): 6539.03
CXCR4; 5 μg/ml ligustilide
  CXCR4 expression level (Image J): 4138.77
SDF1αβ; [1]
  gene expression level of SDF1αβ: increased
SDF1αβ; 0.625 μg/ml ligustilide
  SDF1αβ expression level (Image J): 6766.31
SDF1αβ; 1.25 μg/ml ligustilide
  SDF1αβ expression level (Image J): 4065.23
SDF1αβ; 2.5 μg/ml ligustilide
  SDF1αβ expression level (Image J): 4791.36
SDF1αβ; 5 μg/ml ligustilide
  SDF1αβ expression level (Image J): 5767.31
IL-6; [1]
  gene expression level of IL-6: decreased
IL-6; 0.625 μg/ml ligustilide
  IL-6 expression level (Image J): 7756.00
IL-6; 1.25 μg/ml ligustilide
  IL-6 expression level (Image J): 8204.13
IL-6; 2.5 μg/ml ligustilide
  IL-6 expression level (Image J): 5629.93
IL-6; 5 μg/ml ligustilide
  IL-6 expression level (Image J): 2804.03
IL-8; [1]
  gene expression level of IL-8: decreased
IL-8; 0.625 μg/ml ligustilide
  IL-8 expression level (Image J): 6102.10
IL-8; 1.25 μg/ml ligustilide
  IL-8 expression level (Image J): 9691.71
IL-8; 2.5 μg/ml ligustilide
  IL-8 expression level (Image J): 5840.23
IL-8; 5 μg/ml ligustilide
  IL-8 expression level (Image J): 3487.33
